Tested on: HN5 cells
Experiment: Rescue experiment: antibody pre-incubated with GPR87 N-terminal peptide
Type: cell-based, human
Conditions: 50 ug/ml antibody, increasing amounts of peptide, Fig. 7B
Experimental: Antibody targeting of hGPR87 on living cells is performed as follows: For antibody applications on living HN5 cells, a rabbit anti-hGPR87, directed against the N-terminus of hGPR87 (Novus Biologicals) is used (in Fig. 7A: N-term). HN5 cells are seeded (75000/6-well and 3000/96-well) the day prior to the antibody treatment. The antibody is used at a concentration of 50 ug/ml in medium without serum. 48 h after antibody addition the cells are either lysed for western blot analysis or analysed by AlamarBlue staining. Briefly, 10 ul of AlamarBlue reagent (Biosource, Camarillo USA/CA) are added to 100 ul medium and incubated until a change in color can be recognized (~6 hours). As a control, 50ug/ml antibody targeting C-terminal domain of human GPR87 is used (in Fig. 7A: C-term). Since antibodies are dissolved in PBS containing 0.01 %sodium azide, 0.01% sodium azide in PBS is added to the cells as a control to exclude toxic side effects (SA ctrl in Fig. 7A).
To determine the specificity of the anti-GPR87 antibody recognizing the N-terminus, in a so-called "rescue experiment", a peptide covering the first 46 amino acids of SEQ ID NO:2, is added. (The amounts used are 50 ug/ml of antibody and increasing amounts of GPR87 N-terminal peptide). […] The reversibility of the effects (proliferation and viability) correlates with the concentration of the blocking peptide (Fig. 7B).

GPR87 N-terminal peptide: a peptide covering the first 46 amino acids of SEQ ID NO:2 (MGFNLTLAKLPNNELHGQESHNSGNRSDGPGKNTTLHNEFDTIVLP)
reversal of the pro-apoptotic, anti-proliferative effect of the antibody: can be reversed
